From patent US20140128412A1, “COMBINATION OF AN ANT[…] AN ANTI-INFLAMMATORY AGENT” (priority 2011, published 2014)

Experiments:
Assay type in all cases: in vivo, human
plasma IL-1β = experiment: Plasma IL-1β level by ELISA in the double-blind clinical trial; conditions: schizophrenic patients, FIG. 3A
From the text: (§1) One hundred and thirty-seven Han Chinese schizophrenic patients and 67 Han Chinese healthy controls (age range: 20-59 years old) were recruited from the Department of Psychiatry at National Cheng Kung University Hospital and the National Defense Medical Center. All patients were screened for being used. The Chinese version of the SADS-L, which has good reliability and validity, was used to screen all participants for psychiatric conditions and whether they fit the DSM-IV diagnostic criteria for schizophrenia without any comorbidity. […]
(§2) Ten milliliters of whole blood was drawn and collected from each participant's antecubital vein at the screening visit (V), 0, 1, 2, 4, 6, 8, and 11 weeks. […] Plasma cytokine, CRP and BDNF concentrations were quantified using enzyme-linked immunosorbent assays (ELISA). A kit (Quantikine Human Cytokine kit; R&D Systems) and an ELISA reader (SpectraMax-M2; Molecular Devices) ELISA reader were used to analysis plasma IL-1β, TNF-α, CRP, and BDNF levels. […]

plasma TNF-α = experiment: Plasma TNF-α level by ELISA in the double-blind clinical trial; conditions: schizophrenic patients, FIG. 3B
From the text: (§3) One hundred and thirty-seven Han Chinese schizophrenic patients and 67 Han Chinese healthy controls (age range: 20-59 years old) were recruited from the Department of Psychiatry at National Cheng Kung University Hospital and the National Defense Medical Center. All patients were screened for being used. The Chinese version of the SADS-L, which has good reliability and validity, was used to screen all participants for psychiatric conditions and whether they fit the DSM-IV diagnostic criteria for schizophrenia without any comorbidity. Exclusion conditions were: 1) pregnant or nursing women; 2) women of childbearing potential not using adequate contraception as per investigator judgment or not willing to use contraception for the duration of study; 3) patients who had used dextromethorphan, other selective cyclooxygenase 2 inhibitors, or other anti-inflammatory medication within 1 week before the first dose of double-blind medication; 4) a major mental illness other than schizophrenia, including alcoholism and illegal substance use disorder; 5) a clinically significant medical condition, e.g., cardiac, hepatic, or renal disease with current evidence of poor control; 6) patient who had undergone electroconvulsive therapy within 4 weeks before the first dose of double-blind medication; 7) SGOT, SGPT, BUN, and creatinine levels/an SGOT, SGPT, BUN, or creatinine level greater than 3-fold the upper limit of normal. All the healthy controls were free of major and minor mental illness. All research involving humans was reviewed and approved by the National Chung Kung University and National Defense Medical Center Institutional Review Boards before the study began.
This study was a double-blind, stratified, randomized, parallel-group, two-center clinical trial. The treatment was risperidone plus a double-blind add-on of randomly assigned DM or a placebo. Participants began the study immediately after they had been screened for eligibility (screening visit: V). The pre-treatment study phase consisted of a 7-day (V to 0 week) antipsychotic switch-over period for patients (patient hospitalized) who were taking oral antipsychotic medication other than risperidone alone at the screening, or who had been using depot medication for an entire cycle before the screening. […]
as §2

plasma CRP = experiment: Plasma CRP level by ELISA in the double-blind clinical trial; conditions: schizophrenic patients, FIG. 3C
From the text: as §3, with “All research involving humans was reviewed and approved by the National Chung Kung University and National Defense Medical Center Institutional Review Boards before the study began.” left out
as §2

plasma BDNF = experiment: Plasma BDNF level by ELISA in the double-blind clinical trial; conditions: schizophrenic patients, after 11 weeks of treatment; FIG. 3D
From the text: as §1, §2

Cc1nc2n(c(=O)c1CCN1CCC(c3noc4cc(F)ccc34)CC1)CCCC2 [Risp only, risperidone]
change in plasma IL-1β levels (plasma IL-1β; after 11 weeks of treatment, risperidone 1-6 mg/day, DM 60 mg/day): significant decrease
time after which plasma IL-1β level fell (plasma IL-1β): 8 weeks
plasma TNF-α levels at the end of the study (plasma TNF-α; end of study (11 weeks) vs visit): significantly higher
course of plasma TNF-α levels during the study (plasma TNF-α; visit to 11 weeks): rose significantly
time after which plasma TNF-α levels rose significantly (plasma TNF-α): 4 weeks
time of peak plasma TNF-α level (plasma TNF-α): 6 weeks
plasma CRP level at start (first value of 'from ... to') (plasma CRP; before add-on treatment, mean±SEM): 2576.0±484.0
plasma CRP level at end (second value of 'from ... to') (plasma CRP; end of treatment, mean±SEM): 1946.0±369.6
change in plasma CRP levels (plasma CRP; over the study): tended to decrease but were not significantly different
change in plasma BDNF levels (plasma BDNF): did not change
